From ChEMBL document CHEMBL1201862, “PubChem BioAssay data set” (2004)
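Five compound concentrations were applied to cells in 96-well plates for 48 hours; endpoints were derived by simple linear interpolation of the resulting dose-response curve. Here, GI50 denotes the concentration required for 50% inhibition of growth.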 Calls of active or inactive are those of the source. No stated cut-off is given here; in the data, active = GI50 up to about 1.1 µM and inactive = higher.

Tests used:
Experiment in all cases: inhibition of tumour cell growth, NCI panel, 48 h
[1] = tested on: 786-0
[2] = tested on: A498
[3] = tested on: A549
[4] = tested on: ACHN
[5] = tested on: BT-549
[6] = tested on: CAKI-1
[7] = tested on: CCRF-CEM
[8] = tested on: COLO 205
[9] = tested on: DU-145
[10] = tested on: EKVX
[11] = tested on: HCT-116
[12] = tested on: HCT-15
[13] = tested on: HL-60
[14] = tested on: HOP-62
[15] = tested on: HOP-92
[16] = tested on: HT-29
[17] = tested on: Hs-578T
[18] = tested on: IGROV-1
[19] = tested on: K562
[20] = tested on: KM12
[21] = tested on: LOX IMVI
[22] = tested on: M14
[23] = tested on: MCF7
[24] = tested on: MDA-MB-231
[25] = tested on: MDA-MB-435
[26] = tested on: MDA-N
[27] = tested on: MOLT-4
[28] = tested on: Malme-3M
[29] = tested on: NCI-H226
[30] = tested on: NCI-H23
[31] = tested on: NCI-H460
[32] = tested on: NCI-H522
[33] = tested on: NCI/ADR-RES
[34] = tested on: OVCAR-3
[35] = tested on: OVCAR-4
[36] = tested on: OVCAR-5
[37] = tested on: OVCAR-8
[38] = tested on: PC-3
[39] = tested on: RPMI-8226
[40] = tested on: RXF 393
[41] = tested on: SF-295
[42] = tested on: SF-539
[43] = tested on: SK-MEL-28
[44] = tested on: SK-MEL-2
[45] = tested on: SK-MEL-5
[46] = tested on: SK-OV-3
[47] = tested on: SN12C
[48] = tested on: SNB-19
[49] = tested on: SNB-75
[50] = tested on: SR
[51] = tested on: SW-620
[52] = tested on: T47D
[53] = tested on: TK-10
[54] = tested on: U-251
[55] = tested on: UACC-257
[56] = tested on: UO-31

With `c1ccc(N/N=N/c2ccc(-c3nc4ccccc4[nH]3)cc2)nc1` the GI50 [1] was 14.4 µM (inactive), the GI50 [2] was > 100 µM (inactive) and the GI50 [3] was 19.2 µM (inactive). The GI50 [4] was 16.6 µM (inactive), the GI50 [5] was 37.5 µM (inactive) and the GI50 [6] was 27.9 µM (inactive). The GI50 [7] was 2.64 µM (inactive), the GI50 [8] was 27 µM (inactive) and the GI50 [9] was 13.2 µM (inactive). The GI50 [10] was 17.3 µM (inactive), the GI50 [11] was 7.11 µM (inactive) and the GI50 [12] was 15.8 µM. For the same molecule, the GI50 [13] was 50.8 µM (inactive), the GI50 [14] was 16.6 µM (inactive) and the GI50 [15] was 17.3 µM (inactive). The GI50 [16] was 21 µM (inactive), the GI50 [17] was 19.8 µM (inactive) and the GI50 [18] was 13.2 µM (inactive). For the same molecule, the GI50 [19] was 7.31 µM (inactive), the GI50 [20] was 13.6 µM (inactive) and the GI50 [21] was 18.5 µM (inactive). The GI50 [22] was 37.4 µM (inactive), the GI50 [23] was 11.3 µM (inactive) and the GI50 [24] was 12.6 µM (inactive). The GI50 [25] was 21.6 µM (inactive), the GI50 [26] was 16.7 µM (inactive) and the GI50 [27] was 4.43 µM (inactive). The GI50 [28] was 15.6 µM (inactive), the GI50 [29] was 26.3 µM (inactive) and the GI50 [30] was 31.8 µM (inactive). For the same molecule, the GI50 [31] was 15.2 µM (inactive), the GI50 [32] was 16.8 µM (inactive) and the GI50 [33] was 30.3 µM (inactive). The GI50 [34] was 15 µM (inactive), the GI50 [35] was 17.8 µM (inactive) and the GI50 [36] was 26.3 µM (inactive). The GI50 [37] was 21.7 µM (inactive), the GI50 [38] was 18.1 µM (inactive) and the GI50 [39] was 2.05 µM (inactive). For the same molecule, the GI50 [40] was 16.4 µM (inactive), the GI50 [41] was 19.2 µM (inactive) and the GI50 [42] was 17.1 µM (inactive). The GI50 [43] was 20.7 µM (inactive), the GI50 [44] was 27 µM (inactive) and the GI50 [45] was 27.6 µM (inactive). For the same molecule, the GI50 [46] was 14.7 µM (inactive), the GI50 [47] was 15.3 µM (inactive) and the GI50 [48] was 20.8 µM (inactive). For the same molecule, the GI50 [49] was 21.6 µM (inactive), the GI50 [50] was 2.12 µM (inactive) and the GI50 [51] was 17.8 µM (inactive). The GI50 [52] was 12.7 µM (inactive), the GI50 [53] was 19.6 µM (inactive) and the GI50 [54] was 16.5 µM (inactive). For the same molecule, the GI50 [55] was 23.2 µM (inactive) and the GI50 [56] was 19.4 µM (inactive).
